# Laboratory results: PMC6389703, “Identification of Biologically Active Ganoderma lucidum Compounds and Synthesis of Improved Derivatives That Confer Anti-cancer Activities in vitro” (Frontiers in Pharmacology, 2019)
# Where two headings read alike, the source gives them in different places.
# Legend:
# MDA-MB-231 cells [1] = experiment: ROS measurement (CellROX green), MDA-MB-231; format: cell-based, human; details: NAC 500 μM; menadione 10 μM
# Protocol: SUM-149 or MDA-MB-231 were plated in 96-well plates at a density of 2 × 10^4 and 1 × 10^4 cells/well, respectively, in black 96-well clear bottom tissue culture plates and incubated for 24 h at 37°C. The mRuby-Mito-7 plasmid was obtained from Addgene (#55874 from Michael Davidson). A stable clone of MCF-7 was generated by using Fugene 6 (Roche) to transfect cells (2 × 10^5) with plasmid (2.0 μg) under neomycin selection. A stable cell line was selected by using G418 (300 μg/mL) for 2 weeks, sorted by flow cytometry, and maintained under G418 thereafter. Transfected MCF-7 cells were plated at a density of 2 × 10^4 cells/well in black 96-well clear bottom tissue culture plates and incubated overnight at 37°C. To test for ROS formation and remove background, cells were replenished with fresh PBS with 2% FBS and treated with the desired compounds for 1 h at 37°C. DMSO (0.5%) was used as a negative control, while Menadione (Mena, at 10 μM) or t-Butyl hydroperoxide (TBHP) at 100 μM final concentration were used as a positive control. To evaluate the compounds’ effects on ROS formation inhibition, the free radical scavenger N-acetyl cysteine (NAC) was used. […] Fluorescence intensity was measured in a Clariostar® plate reader (BMG LABTECH, Cary, NC, United States) at 535 nm.
# SUM-149 cells [2] = experiment: ROS measurement (CellROX green), SUM-149; format: cell-based, human; details: NAC 500 μM; EP 20 μM, menadione 10 μM
# Protocol: (§1) SUM-149 or MDA-MB-231 were plated in 96-well plates at a density of 2 × 10^4 and 1 × 10^4 cells/well, respectively, in black 96-well clear bottom tissue culture plates and incubated for 24 h at 37°C. The mRuby-Mito-7 plasmid was obtained from Addgene (#55874 from Michael Davidson). A stable clone of MCF-7 was generated by using Fugene 6 (Roche) to transfect cells (2 × 10^5) with plasmid (2.0 μg) under neomycin selection. A stable cell line was selected by using G418 (300 μg/mL) for 2 weeks, sorted by flow cytometry, and maintained under G418 thereafter. Transfected MCF-7 cells were plated at a density of 2 × 10^4 cells/well in black 96-well clear bottom tissue culture plates and incubated overnight at 37°C. To test for ROS formation and remove background, cells were replenished with fresh PBS with 2% FBS and treated with the desired compounds for 1 h at 37°C. DMSO (0.5%) was used as a negative control, while Menadione (Mena, at 10 μM) or t-Butyl hydroperoxide (TBHP) at 100 μM final concentration were used as a positive control. To evaluate the compounds’ effects on ROS formation inhibition, the free radical scavenger N-acetyl cysteine (NAC) was used. Cells were treated with or without NAC (500 μM or 100 μM) for 1 h, then CellROX® green reagent (Molecular Probes #C10444) was added to a final concentration of 5 μM, and cells were incubated for an additional 30 min at 37°C. Cells were then washed 2× with PBS, followed by fixation with 4% paraformaldehyde (v/v) for 15 min, and 2 more washes with PBS. Fluorescence intensity was measured in a Clariostar® plate reader (BMG LABTECH, Cary, NC, United States) at 535 nm.
# [3] = tested on: various breast cancer cell lines; experiment: Cell viability (CellTiter-Glo or PI staining), various breast cancer cell lines; format: cell-based, human; details: for EC50: Homo sapiens, 72-h treatment, CellTiter-Glo or PI staining
# Protocol: (§2) Either 1 × 10^3–4.8 × 10^3 or 4 × 10^2–1.2 × 10^3 cells were seeded to each well of 96- or 384-well white polystyrene flat-bottomed plates (3610 or 8804BC, Corning) in 100 μL or 30 μL media per well, respectively. The concentrations used were experimentally determined to ensure logarithmic growth during the duration of the experiment and prevent adverse effects on cell growth by DMSO exposure. The plates were incubated at 37°C in 5% CO2 for 24 h before treatment. Stock solutions of test compounds (10 mM in DMSO) in nine 3-fold serial dilutions were dispensed via pintool (Biomek). The final concentration of DMSO was 0.3% (v/v) in each well. The plates were incubated for 72 h at 37°C in 5% CO2 and then quenched with CellTiter-Glo® reagent (50 μL/well in 96-well plate, 30 μL/well in 384-well plate) at RT. The positive controls included staurosporine (10 μM), gambogic acid (10 μM), and a toxic quinoline generated in-house. Plates were then incubated at RT for 20 min and centrifuged at 1000 rpm for 1 min. The cytotoxicity assay was performed by using the CellTiter-Glo® Luminescent Cell Viability Assay kit (G7570, Promega, Madison, WI, United States) according to the manufacturer’s instructions. Luminescence was recorded in an Envision plate reader (PerkinElmer).
# (§3) Cell viability assays (MTT or PI staining assays) in SUM-149, SUM-190, MDA-MB-231, and MCF10A cells were performed as we previously described ([Suarez-Arroyo et al., 2016]).
# (§4) For the CTG assay, 3 or 4 replicate assays were conducted for each experimental condition, and a minimum of 3 independent experiments were conducted for cellular assays. The mean luminescence of each experimental treatment group was normalized as a percentage of the mean intensity of untreated controls. EC50 values (μM) were calculated by Pipeline Pilot Software (Accelrys, Enterprise Platform, San Diego, CA, United States). EC50 values (μM) from the viability assay were calculated from dose response curve-fitting via non-linear regression by using GraphPad Prism (Version 7.0, San Diego, CA, United States). For cell viability, colony formation, cell-cycle progression, cell death, and western blot assays, the analyses were performed via one-way or two-way ANOVA with post-testing for each condition (concentration, cell cycle stage, apoptotic event, cell line) by using GraphPad Prism.
# MCF-7 cells = experiment: ROS measurement (CellROX green), MCF-7; format: cell-based, human; details: for ROS increase (fold): GA-01, ergosterol, 5,6-dehydroergosterol 50 µM, EP 20 µM; for ROS formation reduction when co-treated with NAC: NAC 100 µM, TBHP 100 µM
# Protocol: as §1
# BJ cells = experiment: cells; format: cell-based
# Protocol: as §2, §4
# physchem = details: organic solvent or mixture
# SUM-149 cells [4] = experiment: Cell viability assay, SUM-149; format: cell-based, human
# Protocol: as §2, §3, §4
# MDA-MB-231 cells [5] = experiment: De novo in-cell protein synthesis (click assay); format: cell-based, human; details: 2 h; EP 20 μM
# Protocol: First, 2.5 × 10^4 cells/well were seeded in 8-well μ-slides (Ibidi®, #80826) and incubated at 37°C for 12 h. The cells were treated with vehicle, compounds Ganoderic acid A or EP, or cycloheximide (positive control) for 2 h to determine protein synthesis as nascent proteins generated using Biovision’s EZClick^TM Global Protein Synthesis Assay Kit, (#K715-100, Milpitas, CA, United States). The assay includes a robust chemical method based on an alkyne containing o-propargyl-puromycin (OP-puro) probe, which stops translation by forming covalent conjugates with nascent polypeptide chains. Truncated polypeptides are rapidly turned over by the proteasome and can be detected based on the subsequent click reaction with a fluorescent azide. The reaction was conducted according to the manufacturer’s protocol. Cells were imaged at 20× with a Nikon C2 scanning confocal microscope, and the whole image montage was quantified by using Gen5 Software and Lionheart^TM FX Automated Microscope (BioTek, Winooski, VT, United States).
# SUM-149 cells [6] = experiment: ApoTox-Glo Triplex assay, SUM-149; format: cell-based, human; details: SUM-149, 24 h
# Protocol: (§5) Cells (9.5 × 10^4/well in 75 μL of fresh medium) were dispensed in 96-well black flat bottom (8807BC, Corning) plates. The cells were incubated for 12 h at 37°C and then treated with compounds (25 μL) for 24 h. DMSO was used as a negative control, and staurosporine was used as the positive control. […] Then, the Caspase-Glo® 3/7 Reagent was added; plates were mixed briefly by orbital shaking (300-500 rpm for ∼30 s), followed by an additional 30 min incubation at RT. Then luminescence, which correlates with caspase 3/7 activation, was recorded with a plate reader to […] apoptosis induction.
# MDA-MB-231 cells [7] = experiment: ApoTox-Glo Triplex assay, MDA-MB-231; format: cell-based, human; details: MDA-MB-231, 24 h
# Protocol: as §5
# evaluated cell lines = experiment: Cell viability, evaluated cell lines (palmitic acid); format: cell-based; details: tested concentration ≤100μM
# Protocol: Either 1 × 10^3–4.8 × 10^3 or 4 × 10^2–1.2 × 10^3 cells were seeded to each well of 96- or 384-well white polystyrene flat-bottomed plates (3610 or 8804BC, Corning) in 100 μL or 30 μL media per well, respectively. The concentrations used were experimentally determined to ensure logarithmic growth during the duration of the experiment and prevent adverse effects on cell growth by DMSO exposure. The plates were incubated at 37°C in 5% CO2 for 24 h before treatment. Stock solutions of test compounds (10 mM in DMSO) in nine 3-fold serial dilutions were dispensed via pintool (Biomek). The final concentration of DMSO was 0.3% (v/v) in each well. […] Luminescence was recorded in an Envision plate reader (PerkinElmer). […]
# as §4, with “For cell viability, colony formation, cell-cycle progression, cell death, and western blot assays, the analyses were performed via one-way or two-way ANOVA with post-testing for each condition (concentration, cell cycle stage, apoptotic event, cell line) by using GraphPad Prism.” left out
smiles,measurement,setting,value
"CC1=CC(=O)c2ccccc2C1=O [menadione, Menadione, reference compound]",reduction in ROS formation in the presence of NAC,MDA-MB-231 cells [1],about 20%
same,reduction in ROS formation in the presence of NAC,SUM-149 cells [2],about 20%
CC(C)C(C)C=CC(C)C1CCC2C3=CCC4CC(O)CCC4(C)C3CCC21C (stereo not shown),EC50,[3],> 50 µM
same,ROS increase (fold),MCF-7 cells,at least a twofold
same,ROS formation reduction when co-treated with NAC,MCF-7 cells,9–25%
same,cytotoxic effects in normal BJ cells,BJ cells,did not induce cytotoxic effects
"CC(C)[C@@H](C)/C=C/[C@@H](C)[C@H]1CC[C@H]2C34C=CC5(C[C@@H](OC(=O)NS(=O)(=O)c6ccccc6)CC[C@]5(C)C3CC[C@]12C)OO4 (stereo partly shown) [EP sulfonamide, ergosterol peroxide sulfonamide]",solubility,physchem,≥ 10 mM
same,EC50,"SUM-149 cells [4]; Homo sapiens, SUM149, SUM-149, Figure 10A, read-out: EC50, cancer cell viability (derivatives)",12 µM
same,cytotoxic effects in normal BJ cells,BJ cells; at the concentrations tested,minimal
CC(C)[C@@H](C)/C=C/[C@@H](C)[C@H]1CC[C@H]2C3=CC=C4C[C@@H](O)CC[C@]4(C)[C@H]3CC[C@]12C [ergosterol],EC50,[3],> 50 µM
same,concentration from which cancer cell viability is significantly reduced,[3]; breast cancer cellular models,64 µM
same,ROS increase (fold),MCF-7 cells,at least a twofold
same,ROS formation reduction when co-treated with NAC,MCF-7 cells,9–25%
same,concentration at which SUM-149 cell viability is significantly reduced,SUM-149 cells [4]; 72 h,64 µM
same,cytotoxic effects in normal BJ cells,BJ cells,did not induce cytotoxic effects
"C[C@H](CC(=O)C[C@@H](C)[C@H]1C[C@H](O)[C@@]2(C)C3=C(C(=O)C[C@]12C)[C@@]1(C)CCC(=O)C(C)(C)[C@@H]1C[C@@H]3O)C(=O)O [GA-01, ganoderic acid A]",EC50,[3],> 50 µM
same,de novo protein synthesis inhibition,MDA-MB-231 cells [5],do not inhibit
same,ROS increase (fold),MCF-7 cells,at least a twofold
same,ROS formation reduction when co-treated with NAC,MCF-7 cells,9–25%
same,caspase 3/7 activity,SUM-149 cells [6],increase caspase 3/7 activity
same,viability (GF-AFC),SUM-149 cells [6],decrease viability
same,caspase 3/7 activity,MDA-MB-231 cells [7],increase caspase 3/7 activity
same,viability (GF-AFC),MDA-MB-231 cells [7],decrease viability
same,cytotoxic effects in normal BJ cells,BJ cells; at the concentrations tested,did not induce cytotoxic effects
"CC(C)(C)OO [TBHP, t-Butyl hydroperoxide, reference compound]",ROS formation reduction when co-treated with NAC,MCF-7 cells,~50%
CCCCCCCCCCCCCCCC(=O)O [palmitic acid],activity in the evaluated cell lines,evaluated cell lines,did not show activity
same,activity in the evaluated cell lines,evaluated cell lines; listed as Palmitic acid,No detected biological activity
same,EC50,"BJ cells; Homo sapiens, BJ, Cell Titer Glo, 72-h treatment",> 100 µM
